{"source": "patent US12686701B2", "about": "“Substitution of histidine with 2-thiohistidine in bioactive peptides” (University of Vermont and State Agricultural College, priority 2021, dated 2026)", "key": {"[1]": {"assay": "ABTS radical scavenging activity (UV-Vis, 734 nm)", "type": "biochemical", "conditions": "for ABTS radical TEAC: Trolox equivalent antioxidant capacity, 10 min, PBS pH 7.2, average of three or more trials, ND = activity too low to be determined, TEAC close to zero; for ability to scavenge ABTS radical (in words): absorbance peak at 734 nm", "method": "Measurement of 2,2′-azino-di-[3-ethylbenzthiazoline sulfonate (6)] (ABTS) radical scavenging activity. ABTS scavenging assays were performed according to previously published protocols with some modifications. A 10 mM stock solution of potassium persulfate was prepared in deionized water. A stock solution of ABTS was prepared by dissolving 7 mM ABTS and 2.45 mM potassium persulfate in deionized water. This solution was allowed to incubate at room temperature in the dark for 12-16 h to allow potassium persulfate to oxidize the ABTS. Following oxidation, the solution was a dark blue/green color. This solution was stable in the dark at room temperature for at least 48 h. This solution was diluted with 100 mM phosphate buffered saline, pH 7.2 so that the final absorbance was 0.70±0.02 at 734 nm. Stock solutions for all peptides and for Trolox were prepared in a range from 0.1 mM to 3.2 mM in 100 mM phosphate buffered saline, pH 7.2. To test the ability of Trolox and peptides to reduce the ABTS radical cation, samples were prepared with 990 μL of the diluted ABTS solution and 10 μL of each of the peptide or Trolox stock solutions. For every trial, one sample was prepared with 990 μL ABTS and 10 μL of buffer. The samples were allowed to incubate at room temperature in the dark for 10 min. The spectrophotometer was blanked with 1 mL of 100 mM phosphate buffered saline, pH 7.2 from 200-800 nm. Scans were taken for each of the samples and the change in absorbance at 734 nm was monitored. Every sample was run in triplicate and the results were averaged. The percentage of inhibition of ABTS oxidation was calculated using Equation 2.\n(§1) [formula] where Acontrol is the absorbance of the control (ABTS and buffer only) and Asample is the absorbance at 734 nm of the test peptide/standard. A Trolox calibration curve was prepared with concentrations ranging from 1-32 μM (FIG. 14). Similar curves were prepared for each of the peptides (FIG. 14). These curves were used to calculate TEAC values for each of the peptides by calculating the ratio of peptide to Trolox to achieve the same percent reduction of ABTS."}, "[2]": {"assay": "Hydroxyl radical scavenging activity by room temperature EPR (Fenton reaction, DMPO spin trap)", "type": "biochemical", "conditions": "for Hydroxyl Radical RSA (%): all analytes at 1 mM, potassium phosphate pH 7.4, average of three or more trials; for increase in ·OH scavenging ability on substituting 2-thioHis for His: difference of RSA versus His-containing counterpart; for increase in ·OH scavenging ability on substituting 2-thioHis for His / ability to scavenge ·OH (in words): 1 mM", "method": "Measurement of hydroxyl radical scavenging activity. Hydroxyl radical scavenging activity of peptides was measured with room temperature EPR spectroscopy according to known methods with some modifications. Hydroxyl radicals were generated by the iron-catalyzed Fenton Haber-Weiss reaction, and the generated hydroxyl radicals were reacted with the nitrone spin trap 5,5-dimethyl-1-pyrroline-N-oxide (DMPO). The resultant DMPO-OH adducts were detectable with EPR spectroscopy. The peptide (1 mM final concentration) was added to a solution containing: 24 mM DMPO, 0.8 mM FeSO4, and 0.8 mM H2O2 in 100 mM potassium phosphate buffer, pH 7.4 in a final reaction volume of 250 μL. This solution was immediately transferred into a 50 μL quartz capillary tube. After 5 min, the EPR spectrum was recorded using a Bruker X-band EPR spectrometer operating at 9.42 GHz. The experimental conditions employed were as follows: magnetic field, 336.5±10 mT; power, 2 mW; modulation amplitude, 2.00 G; time constant, 327.68 ms, modulation frequency, 100 kHz; receiver gain, 30 dB sweep time, 60 s. Trials were performed in triplicate for each peptide. The double integral of the EPR spectra was obtained and used to determine the signal intensity for each sample. The hydroxyl radical scavenging ability was calculated using Equation 3, in which H and H0 are relative peak height of radical signals with and without sample, respectively. [formula]"}, "[3]": {"assay": "DPPH radical scavenging activity (UV-Vis, 517 nm)", "type": "biochemical", "conditions": "for DPPH Radical TEAC: Trolox equivalent antioxidant capacity, 50 μM DPPH, 15 min, pH 7.0, 60:40 ethanol:buffer, ND = activity too low to be determined, TEAC close to zero; for ability to scavenge DPPH radical (in words): absorbance peak at 517 nm", "method": "Measurement of 2,2-diphenyl-1-picrylhydrazyl (DPPH) radical scavenging activity. DPPH activity assays were conducted according to procedures known in the art. A 1 mM stock solution of DPPH was prepared by dissolving DPPH in 95% ethanol. Peptide stock solutions were prepared at a concentration of 5 mM in 100 mM potassium phosphate buffer, pH 7.0 for each of the His- and 2-thioHis-containing peptides. 6-hydroxy-2,5,7,8-tetramethylchromane-2-carboxylic acid (Trolox) was used as a standard for antioxidant activity and a positive control. A 5 mM solution of Trolox in 100 mM potassium phosphate, pH 7.0 was prepared. A blank was prepared by mixing 600 μL of 95% ethanol with 400 μL of 100 mM potassium phosphate, pH 7.0 in a cuvette. This solution was used to blank the spectrophotometer from 200-800 nm. In each sample, a 60:40 ratio of ethanol:buffer was maintained. To test the ability of Trolox and the different peptides to reduce DPPH, 50 μM DPPH was combined with different concentrations of peptide or Trolox ranging from 5 μM to 500 μM and the total volume of each sample was adjusted to 1 mL with buffer and ethanol. The samples were allowed to incubate at room temperature in the dark for 15 min, after which each sample was scanned and changes in the absorbance at 517 nm were monitored. Trials were run in triplicate for each of the peptides and Trolox. For every trial, one sample was prepared with only 50 μM DPPH (no peptide or Trolox) to serve as a control. The percentage of inhibition of DPPH oxidation was calculated using Equation 1:\nas §1, with “(DPPH” for “(ABTS”, “517” for “734”, “5-50” for “1-32”, “13).” for “14).”, “Trolox equivalent antioxidant capacity (TEAC)” for “TEAC”, “DPPH.” for “ABTS.”"}, "[4]": {"assay": "Low temperature (95 K) EPR of peptide-Cu(II) complexes", "type": "binding", "conditions": "from EPR spectra, not quantified", "method": "Low temperature EPR studies. The ability of each peptide to bind Cu(II) was determined by low temperature (95 K) EPR spectroscopy using the methods known in the art with some modifications. Samples of 200 μM and 400 μM peptide were incubated for 10 min at room temperature with 200 μM CuCl2 in 100 mM potassium phosphate, pH 7.4. Following incubation, aliquots of each sample were transferred into 4 mm inner diameter quartz EPR tubes (Wilmad-LabGlass). The samples were frozen in liquid nitrogen and stored in liquid nitrogen prior to use. Control samples were prepared with only buffer and with 200 μM CuCl2 in potassium phosphate buffer. Low temperature EPR spectra were gathered with a Bruker EPR spectrometer operating at 9.42 GHz with the following parameters: scan range, 6000 G; field set, 3200 G; time constant, 164 ms; scan time, 60 s; modulation amplitude, 7.000 G; modulation frequency, 100 kHz; receiver gain, 30 dB; microwave power, 20 mW; and number of scans, 5."}}, "note": "“Also recorded” adds a separate entry of the source. *1 amine or outer side, *2 acyl side, *3 side chain or, on linkers, in order; H or OH if unused. Where a SMILES comes first, the peptide text is derived from it. [ ]: non-standard residue; d: D form. X1 = O=C([C@H](Cc1c[nH]c(=S)[nH]1)N[*:1])[*:2]", "data": [{"molecule": "NC(Cc1c[nH]c(=S)[nH]1)C(=O)O", "note": "[2-thioHis, L-2-thiohistidine]", "values": [{"measurement": "ABTS radical TEAC", "setting": "[1]", "result": "1.50 ± 0.03"}, {"measurement": "Hydroxyl Radical RSA (%)", "setting": "[2]", "result": "56.0 ± 2.1", "unit": "%"}, {"measurement": "increase in ·OH scavenging ability on substituting 2-thioHis for His", "setting": "[2]", "result": 7.5, "unit": "%"}, {"measurement": "DPPH Radical TEAC", "setting": "[3]", "result": "1.00 ± 0.02"}, {"measurement": "ability to scavenge DPPH radical (in words)", "setting": "[3]", "result": "same ability as Trolox"}]}, {"molecule": "NCCC(=O)N[C@@H](Cc1cnc[nH]1)C(=O)O", "note": "[Carnosine, H-βAH-OH, reference compound]", "values": [{"measurement": "ability to scavenge ·OH (in words)", "setting": "[2]", "result": "not a good ·OH scavenger"}, {"measurement": "Hydroxyl Radical RSA (%)", "setting": "[2]", "result": "31.4 ± 4.2", "unit": "%"}]}, {"molecule": "N[C@@H](Cc1c[nH]cn1)C(=O)O", "note": "[His, histidine]", "values": [{"measurement": "Hydroxyl Radical RSA (%)", "setting": "[2]", "result": "48.5 ± 7.3", "unit": "%"}]}, {"molecule": "Cc1c(C)c2c(c(C)c1O)CCC(C)(C(=O)O)O2", "note": "(centres unmarked) [Trolox, 6-hydroxy-2,5,7,8-tetramethylchromane-2-carboxylic acid, reference compound]", "values": [{"measurement": "ABTS radical TEAC", "setting": "[1]", "result": 1.00}, {"measurement": "DPPH Radical TEAC", "setting": "[3]", "result": 1.00}]}, {"molecule": "CC(C)C[C@H](NC(=O)[C@@H]1CCCN1C(=O)CNC(=O)[C@H](CC(C)C)NC(=O)[C@@H]1CCCN1C(=O)CNC(=O)[C@@H](N)Cc1c[nH]c(=S)[nH]1)C(=O)O", "note": "[thioHGPLGPL, H-thioHGPLGPL-OH] (H-[X1]GPLGPL-OH)", "values": [{"measurement": "ABTS radical TEAC", "setting": "[1]", "result": "2.14 ± 0.02"}, {"measurement": "ability to scavenge ·OH (in words)", "setting": "[2]", "result": "equivalent to 2-thioHis itself"}, {"measurement": "Hydroxyl Radical RSA (%)", "setting": "[2]", "result": "59.7 ± 3.0", "unit": "%"}, {"measurement": "increase in ·OH scavenging ability on substituting 2-thioHis for His", "setting": "[2]", "result": 12, "unit": "%"}, {"measurement": "DPPH Radical TEAC", "setting": "[3]", "result": "0.95 ± 0.01"}]}, {"molecule": "H-GHK-OH [reference compound]", "values": [{"measurement": "ability to scavenge ABTS radical (in words)", "setting": "[1]", "result": "no decrease in the ABTS absorbance peak at 734 nm"}, {"measurement": "Hydroxyl Radical RSA (%)", "setting": "[2]", "result": "65.4 ± 0.008", "unit": "%"}, {"measurement": "ability to scavenge DPPH radical (in words)", "setting": "[3]", "result": "only a slight decrease in the DPPH absorbance peak at 517 nm"}]}, {"molecule": "H-GthioHK-OH", "values": [{"measurement": "ABTS radical TEAC", "setting": "[1]", "result": "2.61 ± 0.01"}, {"measurement": "ability to scavenge ABTS radical (in words)", "setting": "[1]", "result": "completely reduce the DPPH and ABTS radicals; also recorded: slightly higher TEAC value than the other 2-thioHis peptides"}, {"measurement": "ability to scavenge ·OH (in words)", "setting": "[2]", "result": "highest RSA of all compounds tested; also recorded: nearly completely abolishing the signal"}, {"measurement": "Hydroxyl Radical RSA (%)", "setting": "[2]", "result": "97.0 ± 0.3", "unit": "%"}, {"measurement": "increase in ·OH scavenging ability on substituting 2-thioHis for His", "setting": "[2]", "result": 31.6, "unit": "%"}, {"measurement": "DPPH Radical TEAC", "setting": "[3]", "result": "0.95 ± 0.02"}, {"measurement": "ability to scavenge DPPH radical (in words)", "setting": "[3]", "result": "completely reduce the DPPH and ABTS radicals"}]}, {"molecule": "H-βAthioH-OH [thioHcarnosine]", "values": [{"measurement": "ABTS radical TEAC", "setting": "[1]", "result": "2.25 ± 0.05"}, {"measurement": "ability to scavenge ·OH (in words)", "setting": "[2]", "result": "less than 2-thioHis"}, {"measurement": "Hydroxyl Radical RSA (%)", "setting": "[2]", "result": "43.5 ± 1.1", "unit": "%"}, {"measurement": "increase in ·OH scavenging ability on substituting 2-thioHis for His", "setting": "[2]", "result": 13, "unit": "%"}, {"measurement": "affinity for / binding of Cu(II) (in words)", "setting": "[4]", "result": "higher affinity for Cu(II) than carnosine"}, {"measurement": "DPPH Radical TEAC", "setting": "[3]", "result": "0.80 ± 0.01"}]}, {"molecule": "HGPLGPL [H-HGPLGPL-OH, reference compound]", "values": [{"measurement": "Hydroxyl Radical RSA (%)", "setting": "[2]", "result": "46.8 ± 1.3", "unit": "%"}]}]}
